Counter-ions that a name gives are not always drawn. Like-named read-outs stand apart in the source and are kept apart here.
Key:
anesthetized guinea pigs [1] = assay: In vivo delivery of radiolabeled drug into anesthetized guinea pigs
[2] = iontophoresis in vitro across human skin; cited from earlier work
subjects = assay: Study 16: Platform IIA under various treatment conditions; assay type: in vivo, human; details: patches containing lidocaine 10% with and without epinephrine
[3] = codelivered with 300 mg of lidocaine; cited from earlier work
anesthetized guinea pigs [4] = details: guinea pig, in vivo

Q: For `CCN(CC)CC(=O)Nc1c(C)cccc1C.Cl` [lidocaine, 2-(Diethylamino)-2′,6′-acetoxylidide mono hydrochloride, monohydrate], which “amount delivered per patch” value (anesthetized guinea pigs [1]) is on record?
A: The value was 467 µg.

Q: Which “cumulative delivery compared with lidocaine” value [2] does the source give for `CCN(CC)CCOC(=O)c1ccc(N)cc1` [procaine] here?
A: The value was “slightly greater delivery”.

Q: What does the source list for `CNCC(O)c1ccc(O)c(O)c1` [epinephrine, 1,2 Beizenediol, 4-[1-hydroxy-2-(methylamino)ethyl]-,(R)—, [R—(R*,R*)]-2,3-dihydroxybutanedioate (1:1) (salt)]?
A: effect of epinephrine on the anaesthetic effect of lidocaine (subjects): significantly enhanced; maximum recommended dose [3]: 150 µg; amount delivered per patch (anesthetized guinea pigs [4]): 2.4 µg

Q: With `CCCN(CC)C(CC)C(=O)Nc1c(C)cccc1C` (stereo not shown) [etidocaine] as the molecule, how does the “cumulative delivery compared with lidocaine” value [2] read?
A: The value was “slightly greater delivery”.

Q: With `CCCNC(C)C(=O)Nc1ccccc1C` (stereo not shown) [prilocaine] as the molecule, how does the “cumulative delivery compared with lidocaine” value [2] read?
A: Its value is “slightly greater delivery”.
